Assay results taken from patent publication US9790207B2, “Pan-genomic inhibitors of NS5A protein encoded by HCV, pharmaceutical compositions, intermediates for inhibitor synthesis, and their synthesis and application methods” (priority 2015, dated 2017).
Counter-ions that a name gives are not always drawn. Like-named read-outs stand apart in the source and are kept apart here.

What was measured:
HCV gT2a replicon = assay: HCV replicon assay, gT2a; format: cell-based, Hepatitis C virus (HCV); details: Huh7 replicon cells, mean
Method: (§1) The HCV replicon assay was used to determine the antiviral activity of compounds of general formula 2 (test compounds). The test cell line used in the HCV Replicon Assay was the human hepatoma cell line Huh7 incorporating the HCV replicons synthesized by an outside vendor.
(§2) 96-well plates were seeded with cells at a density of 7.5×10^3 cells per well in 50 μl of assay media. The compound stock solution was made up freshly in an assay medium (DMEM 1×, Cellgro; cat. #10-013-CV) as a 2× stock. A total of 11 serial 3-fold dilutions of test compounds were prepared from the 2× stock in the assay media ranging from 20 nM-0.2 pM final concentrations. At least 4 hours after seeding the cells, compound treatment was initiated by adding 50 μl of compound dilution to the plates. The final concentrations of compound therefore ranged from 10 nM to 0.1 pM when diluted 1:1 in culture media. The final DMSO concentration was 0.5%. Cells and inhibitors were incubated for 3 days at 37° C./5% CO2. The media was removed from the plates by gentle tapping. The cells were fixed with 100 μl 1:1 acetone:methanol for 1 minute, washed three times with PBS buffer, and then blocked with 150 μl/well 10% Fetal Bovine Serum (FBS) in PBS for 1 hour at room temperature. The cells were then washed three times with PBS buffer and incubated with 100 μl/well anti-hepatitis C core mAb (Affinity BioReagents; cat. # MA1-080, 1 mg/ml stock diluted 1:4,000 in 10% FBS-PBS) for 2 hours at 37° C. Then, the cells were washed three times with PBS and incubated with 100 μl/well HRP-Goat Anti-Mouse antibody (diluted 1:3.500 in 10% FBS-PBS) for 1 hour at 37° C. The cells were then washed three times with PBS and developed with an OPD solution, 100 μl/well (1 OPD tablet+12 ml citrate/phosphate buffer+5 μl 30% H2O2 per plate), for 30 minutes in the dark at room temperature. The reaction was stopped with 2N H2SO4 (100 μl/well), and the absorbance was measured at A490 X on a Victor^3 V 1420 multilabel counter (Perkin Elmer).

HCV gT5a replicon = assay: HCV replicon assay, gT5a; format: cell-based, Hepatitis C virus (HCV)
Method: as §1, §2

HCV gT4a replicon = assay: HCV replicon assay, gT4a; format: cell-based, Hepatitis C virus (HCV)
Method: as §1, §2

[1] = system: human hepatoma cell line Huh7; assay: Cytotoxicity, cell viability by ATPLite Kit; format: cell-based; details: 96 hours, maximal inhibition
How it was run: (§3)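 Huh7 cells seeded 18 h before compound addition, then exposed for 96 h at 37° C./5% CO2, triplicate dilutions. Viability read as ATP luminescence (ATPLite) after PBS wash and lysis; CC50 derived from the dilution series.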

HCV gT3a replicon = assay: HCV replicon assay, gT3a; format: cell-based, Hepatitis C virus (HCV)
Method: as §1, §2

HCV gT1a replicon = assay: HCV replicon assay, gT1a; format: cell-based, Hepatitis C virus (HCV); details: Huh7 replicon cells, mean
Method: as §1, §2

HCV gT1b replicon = assay: HCV replicon assay, gT1b; format: cell-based, Hepatitis C virus (HCV); details: Huh7 replicon cells, mean value
HCV Genotype NS5A GT5a = details: known inhibitors, literature values; cited from earlier work
HCV Genotype NS5A GT1b = details: known inhibitors, literature values; cited from earlier work
HCV Genotype NS5A GT2a = details: known inhibitors, literature values, cited from earlier work
HCV Genotype NS5A GT3a = details: known inhibitors, literature values, cited from earlier work
HCV Genotype NS5A GT1a = details: known inhibitors, literature values; cited from earlier work
[2] = known inhibitors, literature values; cited from earlier work
HCV Genotype NS5A GT4a = details: known inhibitors, literature values; cited from earlier work
[3] = Cytotoxicity, cell viability by ATPLite Kit; format: cell-based, human; details: human, Huh7 cells (human hepatoma cell line), 10% FBS, maximal inhibition, read-out: Cytotox gT1b 10% FBS max. inh.
How it was run: as §3

[4] = Bioavailability of new inhibitors in rats; details: rat, in vivo
[5] = Hepatitis C virus, GT5A, Huh-7, read-out: gT5a, EC50 (pM) mean
[6] = Hepatitis C virus, GT4A, Huh-7, read-out: gT4a, EC50 (pM) mean
[7] = Hepatitis C virus, GT3A, Huh-7, Huh7 replicon cells, mean, read-out: gT3a, EC50 (pM) mean
[8] = Hepatitis C virus, GT1B, Huh-7, 10% FBS, read-out: gT1b 10% FBS, EC50 (pM) mean
[9] = Hepatitis C virus, GT1B, Huh-7, 40% NHS, read-out: gT1b 40% NHS, EC50 (pM) mean

Row | SMILES | EC50 (HCV Genotype NS5A GT1b) [pM] | EC50 (HCV Genotype NS5A GT2a) [pM] | EC50 (HCV Genotype NS5A GT1a) [pM] | EC50 (HCV Genotype NS5A GT4a) [pM] | EC50 (HCV gT2a replicon; Hepatitis C virus, GT2A, Huh-7) [pM] | EC50 (HCV gT5a replicon; [5]) [pM] | EC50 (HCV gT4a replicon; [6]) [pM] | inhibition at 96 h [3] [%] | EC50 (HCV gT3a replicon; [7]) [pM] | EC50 (HCV gT1a replicon; Hepatitis C virus, GT1A, Huh-7) [pM] | EC50 (HCV gT1b replicon; [8]) [pM] | EC50 (HCV gT1b replicon; [9]) [pM] | also measured
1 | COC(=O)N[C@H](C(=O)N1CCC[C@H]1c1ncc(-c2ccc(C#CC#Cc3cnc([C@@H]4CCCN4C(=O)[C@H](NC(=O)OC)c4ccccc4)[nH]3)c(-c3ccc(N(C)C)cc3)c2)[nH]1)C(C)C.Cl.Cl.Cl [2(14)•2HCl, [(S)-1-((S)-2-{5-[4′-Dimethylamino-6-(4-{2-[(S)-1-((R)-2-methoxycarbonylamino-2-phenyl-acetyl)-pyrrolidin-2-yl]-3H-imidazol-4-yl}-buta-1,3-diynyl)-biphenyl-3-yl]-1H-imidazol-2-yl}-pyrrolidine-1-carbonyl)-2-methyl-propyl]-carbamic acid methyl ester troihydrochloride] |  |  |  |  |  |  |  |  |  |  |  |  | EC50 (HCV gT2a replicon): 12.8 pM; EC50 (HCV gT5a replicon; Huh7 replicon cells, mean, read-out: gT5a, EC50 (pM) mean): 52 pM; EC50 (HCV gT4a replicon; Huh7 replicon cells, mean, read-out: gT4a, EC50 (pM) mean): 10.8 pM; Cytotox gT1b 10% FBS max. inh. [1]: 23%; EC50 (HCV gT3a replicon; Huh7 replicon cells, mean, read-out: gT3a, EC50 (pM) mean): 38.5 pM; EC50 (HCV gT1a replicon): 138 pM; EC50 (HCV gT1b replicon; 10% FBS, read-out: gT1b 10% FBS, EC50 (pM) mean): 1.51 pM; EC50 (HCV gT1b replicon; 40% NHS, read-out: gT1b 40% NHS, EC50 (pM) mean): 13 pM
2 | COC(=O)N[C@H](C(=O)N1CCC[C@H]1c1ncc(C#CC#Cc2ccc(-c3cnc([C@@H]4CCCN4C(=O)[C@@H](NC(=O)OC)C(C)C)[nH]3)cc2)[nH]1)C(C)C [AV-4025, Hepavivir] | 3.4 | 51 | 59 | 12 |  |  |  |  |  |  |  |  | EC50 (HCV Genotype NS5A GT5a): 172 pM; EC50, pM HCV Genotype NS5A GT5a (HCV Genotype NS5A GT5a): insufficient activities; EC50, pM HCV Genotype NS5A GT3a (HCV Genotype NS5A GT3a): insufficient activities; Bioavailability in rat, F, % [2]: 65.0%
3 | COC(=O)N[C@H](C(=O)N1CCC[C@H]1c1ncc(-c2ccc(C#CC#Cc3cnc([C@@H]4CCCN4C(=O)[C@H](NC(=O)OC)c4ccccc4)[nH]3)c(-c3ccccc3)c2)[nH]1)C(C)C.Cl.Cl [2(7)•2HCl, [(S)-1-((S)-2-{5-[6-(4-{2-[(S)-1-((R)-2-Methoxycarbonylamino-2-phenyl-acetyl)-pyrrolidin-2-yl]-3H-imidazol-4-yl}-buta-1,3-diynyl)-biphenyl-3-yl]-1H-imidazol-2-yl}-pyrrolidine-1-carbonyl)-2-methyl-propyl]-carbamic acid methyl ester dihydrochloride] |  |  |  |  | 5.9 | 19.8 | 8.5 | 32 | 23 | 22.5 | 1.92 | 12.6 | bioavailability [4]: 31%
4 | COC(=O)N[C@H](C(=O)N1CCC[C@H]1c1ncc(-c2ccc(-c3ccc(-c4cnc([C@@H]5CCCN5C(=O)[C@H](NC(=O)OC)c5ccccc5)[nH]4)cc3)c(N(C)c3ccccc3)c2)[nH]1)C(C)C [2(25)•2HCl, [(S)-1-((S)-2-{5-[4′-{2-[(S)-1-((R)-2-Methoxycarbonylamino-2-phenyl-acetyl)-pyrrolidin-2-yl]-3H-imidazol-4-yl}-2-(methyl-phenyl-amino)-biphenyl-4-yl]-1H-imidazol-2-yl}-pyrrolidine-1-carbonyl)-2-methyl-propyl]-carbamic acid methyl ester trihydrochloride] |  |  |  |  | 5.5 | 43.2 | 13.9 | 18 | 24.2 | 345 | 1.72 | 11.5 | 
5 | COC(=O)N[C@H](C(=O)N1CCC[C@H]1c1ncc(-c2ccc(-c3ccc(-c4cnc([C@@H]5CCCN5C(=O)[C@H](NC(=O)OC)c5ccccc5)[nH]4)cc3)c(Sc3ccccc3)c2)[nH]1)C(C)C [2(24)•2HCl, ((S)-1-{(S)-2-[5-(4′-{2-[(S)-1-((R)-2-Methoxycarbonylamino-2-phenyl-acetyl)-pyrrolidin-2-yl]-3H-imidazol-4-yl}-2-phenylsulfanyl-biphenyl-4-yl)-1H-imidazol-2-yl]-pyrrolidine-1-carbonyl}-2-methyl-propyl)-carbamic acid methyl ester dihydrochloride] |  |  |  |  | 4 | 21.6 | 8.3 | 42 | 28.5 | 557 | 1.33 | 8.02 | 
6 | COC(=O)N[C@H](C(=O)N1CCC[C@H]1C(=O)Nc1ccc([C@@H]2CC[C@@H](c3ccc(NC(=O)[C@@H]4CCCN4C(=O)[C@@H](NC(=O)OC)C(C)C)cc3)N2c2ccc(C(C)(C)C)cc2)cc1)C(C)C [Ombitasvir] | 5 | 12.4 | 14.1 | 1.7 |  |  |  |  |  |  |  |  | EC50 (HCV Genotype NS5A GT5a): 4.3 pM; EC50 (HCV Genotype NS5A GT3a): 19.3 pM
7 | COC(=O)N[C@H](C(=O)N1CC2(CC2)C[C@H]1c1nc(-c2ccc3c(c2)C(F)(F)c2cc(-c4ccc5[nH]c([C@@H]6[C@H]7CC[C@H](C7)N6C(=O)[C@@H](NC(=O)OC)C(C)C)nc5c4)ccc2-3)c[nH]1)C(C)C [Ledipasvir] | 5 | 20.8 | 31 | 7 |  |  |  |  |  |  |  |  | EC50, pM HCV Genotype NS5A GT5a (HCV Genotype NS5A GT5a): insufficient activities; EC50 (HCV Genotype NS5A GT2a; listed as Ledipasvir (GS-5885)): 20800 pM; EC50 (HCV Genotype NS5A GT3a): 10.1 pM; EC50, pM HCV Genotype NS5A GT3a (HCV Genotype NS5A GT3a): insufficient activities; EC50 (HCV Genotype NS5A GT3a; listed as Ledipasvir (GS-5885)): 10100 pM
8 | COC(=O)N[C@H](C(=O)N1CCC[C@H]1c1ncc(-c2cc(F)c(-c3ccc(-c4cnc([C@@H]5CCCN5C(=O)[C@H](NC(=O)OC)c5ccccc5)[nH]4)cc3)c(-c3ccccc3)c2)[nH]1)C(C)C [2(26)•2HCl, ((S)-1-{(S)-2-[5-(6′-Fluoro-4-{2-[(S)-1-((R)-2-methoxycarbonylamino-2-phenyl-acetyl)-pyrrolidin-2-yl]-3H-imidazol-4-yl}-[1,1′;2′,1″]terphenyl-4′-yl)-1H-imidazol-2-yl]-pyrrolidine-1-carbonyl}-2-methyl-propyl)-carbamic acid methyl ester dihydrochloride] |  |  |  |  | 3.1 | 14.3 | 7.9 | 39 |  | 30.3 | 3.2 | 14.5 | EC50 (HCV gT3a replicon; Hepatitis C virus, GT3A, Huh-7, read-out: gT3a, EC50 (pM) mean, Huh7 replicon cells): 9.2 pM; EC50 (HCV gT3a replicon; Huh7 replicon cells, mean, dihydrochloride, read-out: gT3a, EC50 (pM) mean): 9.8 pM
